Data: patent US9688957B2, “Hydrogel compositions for use in promoting tubulogenesis” (Wisconsin Alumni Research Foundation, priority 2014, dated 2017)

Legend:
Type in all cases: cell-based, human
HUVECs [1] = test: HUVEC tubulogenesis (total CLS length) in 3D PEG hydrogel array spots; conditions: 10 μM SU5416, 24 hours
Experimental: (§1) During proliferation and tubulogenesis experiments, the arrays of encapsulated cells were cultured in growth medium alone or with 10 μM SU5416 for 24 hours only. Afterward, the cells were incubated for 5 hours in growth medium with 20 μM 5-ethynyl-2′-deoxyuridine (EdU) (Invitrogen) as a proliferation marker and, if appropriate, 10 μM SU5416. Afterward, the arrays were stained with Cell Tracker Green in the same manner as the viability assay, but without Hoechst nuclear stain or ethidium homodimer. The arrays were washed with 1×PBS, fixed for 30 minutes in 10% buffered formalin and stained using the Click-iT EdU 594 proliferation kit (Invitrogen). The staining procedure was slightly modified from the manufacturer's instructions, as Alexa Fluor® 594 was diluted to half the recommended concentration. The arrays were soaked in 1×PBS overnight and photographed using a Nikon TE300 fluorescence microscope. Proliferation was quantified by counting the number of EdU-positive cells and dividing by the total number of nuclei in the post. Tubulogenesis was quantified by manually measuring total capillary-like structure (CLS) length in each post as labeled by Cell Tracker Green. To obtain confocal microscopy images, the hydrogel arrays were mounted in Prolong Gold antifade solution (Invitrogen) and photographed on a Nikon A1R-Si confocal microscope.
Hydrogel solutions were created by combining 36, 42 or 60 mg/mL 20 kDa 8-arm norbornene-functionalized PEG with 0 to 2 mM CRGDS (SEQ ID NO:2) adhesion peptide, additional CRDGS (SEQ ID NO:32) scrambled adhesion peptide to maintain a total adhesion peptide concentration of 2 mM, […] (SEQ ID NO:27) crosslinking peptide at a 2× molar excess concentration to PEG and 0.05% IRGACURE 2959 photoinitiator in phosphate buffered saline. The solutions were polymerized into hydrogels under UV light (90 mW/cm^2, 365 nm, 2 seconds). HUVECs were encapsulated at a density of 2.0×10^7 […] in hydrogels and incubated in M199 supplemented with EGM2 growth supplement. The cells were stained with Cell Tracker Green CMFDA, photographed 24 hours after seeding and scored for total tubule length in the spots. Results are shown FIGS. 18, 28 and 29.

HUVECs [2] = test: HUVEC proliferation in 3D PEG hydrogel array spots (Click-iT EdU); conditions: 10 μM SU5416, 24 hours
Experimental: as §1

HUVECs [3] = test: HUVEC viability in 3D PEG hydrogel array spots; conditions: 10 μM SU5416, 48 hours
Experimental: During hydrogel array fabrication, hydrogel spots contained HUVECs at a density of 2×10^7 cells/mL. The concentration of CRGDS adhesion peptide (SEQ ID NO:2) was adjusted to 0, 0.25, 0.5, 1.0 and 2.0 mM through the addition of PEGNB-CRGDS (SEQ ID NO:2), with the total pendant peptide concentration in all hydrogel spots maintained at 2 mM by adding PEGNB-CRDGS (SEQ ID NO:2). Total polymer percent weight was varied between 4.2, 5 and 7% w/v in the hydrogel spots and 4, 6 and 8% w/v in the backgrounds, with low percent weight hydrogel spots corresponding to low weight percent backgrounds and high percent weight hydrogel spots corresponding to high percent weight backgrounds. During viability experiments, arrays of encapsulated cells were cultured for 48 hours in growth medium alone or with 10 μM SU5416 (Sigma Aldrich), a known inhibitor of VEGFR2 signaling. Medium was replaced 24 hours after encapsulation. After 48 hours of culture, the arrays were washed with serum-free M199 and stained with 5 μM Cell Tracker Green (Invitrogen) for 45 minutes in M199. After 15 minutes of staining, the staining solution was supplemented with Hoechst nuclear stain (Invitrogen) to achieve a final concentration of 10 μg/mL. After staining, the arrays were washed with serum free M199 and incubated for 30 minutes in growth medium containing 2 μM ethidium homodimer (Invitrogen). The arrays were then washed with 1×PBS and fixed for 30 minutes in 10% buffered formalin (Fisher). The arrays were soaked in 1×PBS overnight and photographed using a Nikon TE300 fluorescence microscope within 48 hours of fixation. Viability was quantified by dividing the number of live cell nuclei by total nuclei in the post.

HUVECs [4] = test: HUVEC tubulogenesis in growth factor-reduced MATRIGEL spots; conditions: 10 μM SU5416, HUVECs in growth factor-reduced MATRIGEL, 48 hours
Experimental: HUVECs were suspended in growth factor-reduced MATRIGEL® (BD Biosciences, San Jose, Calif.) at a density of 2×10^7 cells/mL. A 200 μm thick PDMS sheet of microwells was placed on top of a glass slide and the MATRIGEL®-cell suspension was pipetted as 0.4 μl droplets into the microwells. These arrays of MATRIGEL® “spots” were incubated at 37° C. for 30 minutes and covered in growth medium alone or with 10 μM SU5416. After 48 hours of culture, the arrays were stained with Cell Tracker Green in the same manner as in the PEG hydrogel viability assay, but without Hoechst nuclear stain or ethidium homodimer. The arrays were washed with 1×PBS and fixed for 30 minutes in 10% buffered formalin. A green fluorescence and phase contrast z-stack image of each spot was taken at 48 hours after encapsulation using a Nikon TI Eclipse microscope. Total CLS length in each individual spot was quantified manually.

HUVECs [5] = test: HUVEC proliferation with VEGFR2 inhibition on tissue culture polystyrene (EdU); conditions: 10 μM SU5416, HUVECs on TCPS, 24 hours
Experimental: HUVECs were plated in tissue culture polystyrene (TCPS) 24-well plates at a density of 5.0×10^4 cells/cm^2. The cells were grown in growth medium alone or with 10 μM SU5416 for 24 hours. Afterward, the medium was changed to fresh growth medium with or without 10 μM SU5416 and 20 μM EdU. After 5 hours of incubation, the cells were fixed in 10% buffered formalin for 30 minutes and stained using the Click-iT EdU 488 proliferation kit (Invitrogen). The staining procedure was slightly modified from the manufacturer's instructions, as Alexa Fluor® 488 was diluted to half the recommended concentration. The cells were photographed using a Nikon TE300 fluorescence microscope and proliferation was quantified via by counting nuclei staining positive for EdU and normalizing the number to total nuclei.

Cc1cc(C)c(/C=C2\C(=O)Nc3ccccc32)[nH]1 [SU5416]
effect of VEGFR2 inhibition on CLS length (HUVECs [1]; high modulus, 1 mM CRGDS spots): decreased CLS length | effect of VEGFR2 inhibition on CLS length (HUVECs [1]; low modulus, 2 mM CRGDS spots): increased CLS length | effect of VEGFR2 inhibition on CLS length (HUVECs [1]; medium modulus, 0 mM CRGDS spots): decreased CLS length | effect of VEGFR2 inhibition on CLS length compared to growth medium controls (HUVECs [1]; most hydrogel conditions): did not cause significant changes | effect of VEGFR2 inhibition on proliferation (HUVECs [2]; high modulus, 0 mM CRGDS): significant increase in proliferation | effect of VEGFR2 inhibition on proliferation (HUVECs [2]; high modulus, all CRGDS concentrations except 0 mM): significant decreases in proliferation | effect of VEGFR2 inhibition on proliferation (HUVECs [2]; low modulus, 0, 0.25 and 1 mM CRGDS): significant decrease | effect of VEGFR2 inhibition on proliferation (HUVECs [2]; low modulus, 2 mM CRGDS): increased significantly | effect of VEGFR2 inhibition on HUVEC proliferation (HUVECs [2]; majority of hydrogel conditions): decreased | effect of VEGFR2 inhibition on proliferation (HUVECs [2]; medium modulus, 0.5 and 2 mM CRGDS): significant proliferation decreases | reduction of viability with VEGFR2 inhibition (HUVECs [3]; all modulus conditions, spots with 2 mM CRGDS): insignificant | effect of VEGFR2 inhibition on cell viability (HUVECs [3]; conditions without CRGDS): significantly reduced | effect of VEGFR2 inhibition on viability (HUVECs [3]; high modulus, CRGDS at or above 0.5 mM): not significant | decrease in total tubule length compared to growth medium only (HUVECs [4]): 50% | decrease in proliferation compared to the growth medium control (HUVECs [5]): 20%
